These are literature values, as cited in patent US12502363B2, “Ketamine and ketamine/nap for treatment of ADNP syndrome and related neurological conditions” (ADNP Kids Research Foundation, priority 2019, dated 2025).

Data set [1] relates to ADNP. The note with it: 5 mg/kg ketamine, healthy rats without ADNP mutations.
In data set [2] the test system is ADNP gene expression in the somatosensory cortex. The note with it: somatosensory cortex of post-natal day 7 rats, anesthetic dose of ketamine (20 mg/kg), microarray.
For data set [3], the system named is activated caspase-3 (AC3). Particulars: anesthetic doses of ketamine.

In the case of `CNC1(c2ccccc2Cl)CCCCC1=O` (stereo not drawn) [ketamine, Ketamine], in data set [1], the “ADNP in the Fasciola Cinereum (FC) and SSC layers II/III” value was “increased ADNP”. In addition, the ADNP gene expression result in data set [2] is reported as “increases significantly”. The “levels of pro-apoptotic enzyme activated caspase-3 (AC3)” value in data set [3] is given as “increased levels”.
